Measured values reported in patent US6939860B2, “Composition and method for treatment of neoplastic diseases associated with elevated matrix metalloproteinase activities using catechin compounds” (priority 2002, dated 2005).

What was measured:
[1] = test system: Human Breast Cancer Cells MDA-MB 231; assay: Cell proliferation study (MTT stain), breast cancer cells; conditions: MDA-MB 231, 4 days
Experimental: To study the effects of catechins and dietary composition on cell proliferation of human cancer cells, various human cancer cell lines were cultured in 24 well plates using the culture conditions specified by ATCC (supplier of cell lines). The cells were generally incubated for 3 to 4 days (before coalescence was reached). The total number of cells in a culture well was determined by staining the cells with vital stain (MTT) followed by the determination of OD of the stain solution. MTT only stain the dead cells and the amount of stain uptake correlates with the number of dead cells in the culture. Percent inhibition was calculated by comparing the OD of the treatment groups with the OD of the control groups. In these studies, 5×10^4 breast cancer cells (MDAMB 231) were seeded in each of the wells of 24-well plate. […] Plates were incubated in ambient air (without supplemental CO2) for a period of 4 days. At the end of the period, the culture media were withdrawn and the cells in each well were stained with MTT. Excess MTT stain was washed off. The MTT stained cancer cells were dissolved in 1 ml DMSO solution. The optical density (OD) of the solution was determined for each well. The OD for the well was directly proportional to the number of dead cells. The OD of the MTT stained cancer cells that were previously cultured in the absence of EGCGT was used as a reference and was considered as 100. Percent inhibition was calculated by using the formula: % Inhibition=(OD of Reference−OD of the Test Treatment)/OD of Reference×100%.

MMP9 = assay: Zymogram of culture media from Matrigel invasion assay, MMP9; assay type: cell-based, Human; conditions: media of MDA MB 231 Matrigel invasion assay
Experimental: (§1) The media (25-30 μl) from Matrigel Invasion studies was applied to Novex zymogram gels (Invitrogen). The gel plates were developed and stained as recommended by the manufacturer. The matrix-metalloproteinases (MMPs) bands were identified on the basis of their known molecular weights.
(§2) The media from various treatments in the Matrigel Invasion assay (Example 4) were applied to Novex Zymogram Gel (Invitrogen). The plates were developed and stained as recommended by the manufacturer. The matrix metalloproteinases (MMPs) bands were identified on the basis of their known molecular weights (FIG. 6).

MMP2 = assay: Zymogram of culture media from Matrigel invasion assay, MMP2; assay type: cell-based, Human
Experimental: as §1, §2

[2] = test system: Human breast cancer cells (MDA MB 231); assay: Matrigel invasion assay, breast cancer cells; assay type: cell-based; conditions: EGCG 50 μg/ml alone, MDA MB 231, 18 hours
Experimental: The Matrigel Invasion studies were conducted using Matrigel (Becton Dickinson) inserts in compatible 24 well plates. This assay is a reliable assay for evaluating cancer metastasis.
Human fibroblast cells were seeded and grown in the 24-well plates using culture media containing ˜10% serum. When the fibroblasts reached coalescence, the culture media with serum was withdrawn and replaced with fresh media without serum. A combination of catechin compounds plus dietary composition were added to the media without serum and human cancer cells were seeded on the upper surface of the Matrigel inserts.
After 18 hours, the media were withdrawn. Some media were saved for zymogram studies. The cells on the upper surface of the inserts were gently scrubbed away with cotton swab. The cells that had penetrated the Matrigel membrane and had migrated into the lower surface of the Matrigel were stained with Quick Stain and were counted under a microscope.
The general procedure for Matrigel Invasion Assay has been described above. In this assay, human breast cancer cells (5×10^4) were seeded on each insert. Various supplements were added to Leibovitz's media. The plates were incubated in an incubator in ambient air without supplemental CO2.

O=C(O[C@@H]1Cc2c(O)cc(O)cc2O[C@@H]1c1cc(O)c(O)c(O)c1)c1cc(O)c(O)c(O)c1 [EGCG, (−)-epigallocatechin-3-gallate]
inhibition of cell proliferation ([1]; EGCG 10 ug/ml): did not inhibit
inhibition of cell proliferation ([1]; EGCG 20 μg/ml alone): 3%
inhibition of cell proliferation ([1]; EGCG 50 μg/ml): 34%
inhibition of cell proliferation ([1]; EGCG 100 μg/ml): 66%
inhibition of cell proliferation ([1]; EGCG 200 μg/ml): 70%
production of MMP9 (zymogram) (MMP9; EGCG 20 ug/ml): completely inhibited
activity of MMP9 (zymogram) (MMP9; EGCG 50 μg/ml): completely inhibited
activity of MMP9 (zymogram) (MMP9; EGCG 100 ug/ml): completely inhibited
production of MMP2 (zymogram) (MMP2; EGCG 20 ug/ml, media of MDA MB 231 Matrigel invasion assay): reduced
activity of MMP2 (zymogram) (MMP2; EGCG 50 μg/ml, media of MDA MB 231 Matrigel invasion assay): completely inhibited
activity of MMP2 (zymogram) (MMP2; EGCG 100 ug/ml, media of MDA MB 231 Matrigel invasion assay): completely inhibited
activity of MMP2 secreted by breast cancer cells (zymogram) (MMP2; FIG. 6 legend, concentration not given): decreases
inhibition of Matrigel invasion [2]: ~100%
